Read-outs that look alike come from different tables or passages of the source.
Tests used:
[1] = DPPH radical scavenging assay; details: free radical scavenging; mean ± SD of three independent experiments
Text: (§1) Reduced or lack of antioxidant activity of these compounds was attributed to the presence of intramolecular N-H···O hydrogen bond between amino and kenone group of the 2-aminochalcones and their sulfanamido derivatives which is envisaged to deactivate the unsaturated moiety. […] A combination of the styryl and the electrophilic α,β-unsaturated carbonyl arms on the same molecular framework encouraged us to evaluate the test compounds for antioxidant properties through the DPPH and NO radical scavenging assays. […] Compound 2a has potential to inhibit both α-glucosidase and α-amylase activities, and to reduce oxidative stress. […] The observed free radical scavenging activities of these molecular hybrids is presumably due to the presence of styryl arm on the intramolecularly hydrogen bonded 2-aminochalcone scaffold.
The antioxidant activities of the test compounds against ascorbic acid (Sigma Aldrich, Saint Louis, Missouri, USA) as a positive control were evaluated using 2,2-diphenyl-1-picrylhydrazyl (DPPH) radical scavenging assay developed by Zhu et al. as described in our previous study. Triplicate solutions (20 µL) of the test compounds and ascorbic acid in DMSO (final concentrations: 5, 10, 25, 50, and 100 µM) were added into each designated well of a 96-well plate. A solution of 0.20 mM DPPH (20 µL) in methanol was added to each well, and the 96-well plate was wrapped with aluminum foil and incubated in the dark for 45 min. Five absorbance readings were recorded at 512 nm using Varioskan flash microplate spectrophotometer reader. The average values obtained from the absorbance readings were used to determine the IC50 and standard deviation values.

[2] = NO free radical scavenging assay (sodium nitroprusside, Griess reaction); details: mean ± SD of three independent experiments
Text: as §1
Nitric oxide was generated from sodium nitroprusside and measured by Griess’ reaction following the literature method. The experiment was done in triplicate with ascorbic acid (vitamin C) used as a positive control for the assay. In a 96 well plate, 5 μL of the test compounds (0.1, 0.5, 1.0, 5.0 and 10.0 μM in methanol) or the positive control were mixed with 5 μL of 10 mM sodium nitroprusside prepared in phosphate buffered saline (pH = 7.4) and allowed to incubate at room temperature for 2.5 h. Afterwards, 30 μL of the Griess reagent (a mixture of 0.2% N-(1-naphthyl)ethylenediamine dihydrochloride and 2% sulfanilamide in […]) was added to each well and the mixtures were and allowed to stand at room temperature for 30 min. Five absorbance readings were recorded at 546 nm using Varioskan flash microplate spectrophotometer reader.

Vero cells = experiment: MTT cytotoxicity assay on Vero cells; type: cell-based; details: monkey, 24 h treatment
Method: (§2) Metabolic diseases such as diabetes require a stable long-term therapy accompanied by well tolerated and low toxicity, and this encouraged us to evaluate the safety profile of 2a and 3e as potential antidiabetic agents at least in vitro. The compounds were evaluated for cytotoxicity against the normal monkey kidney cells (Vero cells) and the adenocarcinomic human epithelial (A549) cell line using the 3-(4,5-dimethylthiazol-2-yl)-2, 5-diphenyltetrazolium (MTT) assay.
The cytotoxicity activity of compounds 2a and 3e was evaluated against doxorubicin (positive control) using the 3-(4,5-dimethylthiazol-2-yl)-2,5-diphenyltetrazolium bromide (MTT) assay following a modification of a literature method by Mosmann. The Vero and A549 cells were maintained in Dulbecco′s modified Eagle′s medium (DMEM; Gibco) supplemented with 10% Fetal bovine serum (FBS) and 1% penicillin/streptomycin in culture flasks and incubated at 37 °C in 5% CO2. When the cells reached 85% confluency, they were detached using 2% trypsin. Cell count was performed using a handheld automated cell counter (Scapter 3.0™, Merck). The cells were seeded at 1 × 10^5 cells/well and incubated overnight to allow cell attachment. […] Five absorbance readings were recorded at 517 nm using Varioskan flash microplate spectrophotometer reader.

[3] = molecular target: yeast α-glucosidase from Saccharomyces cervisiae (Saccharomyces cerevisiae, UniProt P53341); experiment: biochemical
yeast α-glucosidase from Saccharomyces cervisiae, sequence (P53341 whole entry): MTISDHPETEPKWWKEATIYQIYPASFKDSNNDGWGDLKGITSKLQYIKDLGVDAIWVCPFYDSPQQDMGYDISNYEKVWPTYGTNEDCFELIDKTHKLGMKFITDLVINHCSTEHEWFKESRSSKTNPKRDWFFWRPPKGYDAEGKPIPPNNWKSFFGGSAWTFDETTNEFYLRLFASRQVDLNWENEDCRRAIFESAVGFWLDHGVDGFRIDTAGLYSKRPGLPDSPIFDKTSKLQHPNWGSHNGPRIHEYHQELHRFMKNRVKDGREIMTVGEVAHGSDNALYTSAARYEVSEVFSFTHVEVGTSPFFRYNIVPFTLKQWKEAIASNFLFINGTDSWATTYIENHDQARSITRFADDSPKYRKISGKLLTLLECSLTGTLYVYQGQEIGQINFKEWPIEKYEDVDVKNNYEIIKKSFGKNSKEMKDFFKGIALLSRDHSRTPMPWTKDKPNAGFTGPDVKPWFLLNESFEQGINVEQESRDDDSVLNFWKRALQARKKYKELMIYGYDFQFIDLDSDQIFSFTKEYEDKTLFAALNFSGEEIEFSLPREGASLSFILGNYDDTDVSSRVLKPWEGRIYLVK
Method: All the tests and analyses were performed in triplicates following a modified published protocol described in our previous study. […] 2.5, 5, 10, 25 and 50 µM. α-Glucosidase solution (0.48 u/mL, 20 µL), phosphate buffer (100 mM, pH 6.8; 30 µL) and the test sample (20 µL) as well as the reference standard were added in the designated wells, and the reaction mixtures were incubated at 37 °C for 10 min. 2 mM p-nitrophenyl-α-D-glucopyranoside (20 µL) was added to each of the wells containing reaction mixture to initiate the reaction. The reaction was pre-incubated for 30 min at 37 °C. The reaction was stopped by the addition of 20 μL of a solution of sodium carbonate (200 mM) to each well. Five absorbance readings were recorded for each triplicate run at a wavelength of 400 nm using Varioskan flash microplate spectrophotometer (Thermo Scientific, Waltham, MA, USA). The average values obtained from the readings were used to determine the IC50 and standard deviation values. The values were calculated by the nonlinear regression analysis and expressed as the mean SD of three distinct experiments using Graph Pad Prism software.

A549 cells = experiment: MTT cytotoxicity assay on A549 cells; type: cell-based, human; details: 24 h treatment; for IC50 at 24 h: human, A549 cells
Method: as §2
The cytotoxicity activity of compounds 2a and 3e was evaluated against doxorubicin (positive control) using the 3-(4,5-dimethylthiazol-2-yl)-2,5-diphenyltetrazolium bromide (MTT) assay following a modification of a literature method by Mosmann. The Vero and A549 cells were maintained in Dulbecco′s modified Eagle′s medium (DMEM; Gibco) supplemented with 10% Fetal bovine serum (FBS) and 1% penicillin/streptomycin in culture flasks and incubated at 37 °C in 5% CO2. When the cells reached 85% confluency, they were detached using 2% trypsin. Cell count was performed using a handheld automated cell counter (Scapter 3.0™, Merck). The cells were seeded at 1 × 10^5 cells/well and incubated overnight to allow cell attachment. After 24 h, the cells were treated with different concentrations (0, 2.5, 5, 10, 25, 50, 100 µM) of the test compounds and the reference stand. The cells were incubated for 24 h followed by treatment with 20 µL of MTT solution (5 mg/mL). After 4 h incubation period, DMSO (100 µL) was added to each well to dissolve the formazan crystals. Five absorbance readings were recorded at 517 nm using Varioskan flash microplate spectrophotometer reader.

α-glucosidase = α-glucosidase (Saccharomyces cerevisiae, UniProt P53341); experiment: Enzyme kinetic studies (Lineweaver-Burk and Dixon plots); type: biochemical; details: for Ki / mode of inhibition: α-glucosidase; for Ki: PNPG substrate, read-out: Ki (Dixon plot); for mode of inhibition: Lineweaver-Burk and Dixon plots
α-glucosidase, sequence (P53341 whole entry): as above
Method: The Lineweaver-Burk plot of 1/V versus 1/[S] in the presence of different concentrations of compound 2a in the case of α-glucosidase gave a series of straight lines that intersect on the x-axis (Figure 3a). […] The compound probably binds to the active site and other allosteric sites on the enzyme.
Enzyme kinetics studies were performed on compounds 2a and 3e with increasing inhibitor and substrate concentrations. In the experimental procedure, inhibitors concentrations of 0.1, 0.5, 1, 2.5 µM, and final substrate concentration were 0.1, 0.5, 1 and 5 mM were used. 5 μL of the inhibitor and 2 μL of the enzyme (α-glucosidase) were added to each well of the 96-well plate. The reaction was incubated for 20 min at room temperature. 18 μL of the substrate, PNPG (4-nitrophenyl α-D-glucopyranoside) was then added and absorbance readings recorded after every 2 min at wavelength of 400 nm using a Varioskan flash microplate spectrophotometer reader. Lineweaver-Burk plot (the inverse of velocity (1/v) against the inverse of the substrate concentration (1/[S]) were used to determining the type of inhibition, while the inhibitor constant was obtained from the Dixon plot (the inverse of velocity (1/v) against concentration of inhibitor at each substrate concentration)

α-amylase = experiment: α-Amylase inhibition assay (α-Amylase Inhibitor Screening Kit); type: biochemical; details: mean ± SD of three independent experiments
Method: The α-amylase assay was performed in triplicate using a 96-well plate following the procedure by the manufacturer as outlined in the α-Amylase Inhibitor Screening Kit (Catalog No. K482; Bio Vision). […] For inhibitor control (10 µL of α-amylase inhibitor and 40 µL of assay buffer were added to 3 wells), enzyme control (50 µL of assay buffer was added to three wells) and 50 µL of the test compounds were added into the remaining wells. A solution of α-amylase enzyme (50 µL) prepared by adding 490 µL of assay buffer to 10 µL of α-amylase enzyme was added to each of the wells containing the reaction mixture to initiate the reaction. The plate was incubated for 10 min at room temperature in the dark. Five different absorbance readings were recorded for each triplicate run at a wavelength of 405 nm using Varioskan flash microplate spectrophotometer (Thermo Scientific, Waltham, MA, USA). The IC50 and SD values were calculated using graph pad prism.

[4] = mean ± SD of three independent experiments, pH 6.8, 37 °C, read-out: IC50 (SD) α-Glucosidase

SMILES | IC50 [1] | IC50 [2] | IC50 at 24 h (Vero cells) | IC50 [3, 4] | melting point | IC50 at 24 h (A549 cells) | Ki (α-glucosidase) | mode of inhibition (α-glucosidase) | IC50 (α-amylase) | IC50 [3] | velocity of the reaction (Vmax) (α-glucosidase; α-glucosidase in the presence of increasing inhibitor concentrations, Lineweaver-Burk plot) | IC50 (A549 cells)
O=C1O[C@H]([C@@H](O)CO)C(O)=C1O [Ascorbic acid, reference compound] | 4.2 ± 0.27 µM | 6.14 ± 0.21 µM |  |  |  |  |  |  |  |  |  | 
CC(=O)c1cc(/C=C/c2ccccc2)ccc1N [Compound 2a, (E)-1-(2-Amino-5-styrylphenyl)ethan-1-one] | 7.1 ± 0.32 µM | 8.3 ± 0.22 µM | 164.6 ± 0.59 µM | 5.4 ± 0.1 µM | 119 to 120 °C | 65.7 ± 0.14 µM | 0.3 ± 0.04 µM | non-competitive mode of inhibition | 2.3 ± 0.2 µM |  |  | 
CC(=O)c1cc(/C=C/c2ccc(F)cc2)ccc1N [Compound 2b, (E)-1-(2-Amino-5-(4-fluorostyryl)phenyl)ethan-1-one] | 15.8 ± 0.21 µM | 7.2 ± 0.4 µM |  |  | 149 to 150 °C |  |  |  | 19.3 ± 0.42 µM | 12.7 ± 0.16 µM |  | 
CC(=O)c1cc(/C=C/c2ccc(Cl)cc2)ccc1N [Compound 2c, (E)-1-(2-Amino-5-(4-chlorostyryl)phenyl)ethan-1-one] | 10.4 ± 0.15 µM | 11.6 ± 0.43 µM |  |  | 137 to 138 °C |  |  |  | 5.8 ± 0.51 µM | 15.9 ± 0.34 µM |  | 
COc1ccc(/C=C/c2ccc(N)c(C(C)=O)c2)cc1 [Compound 2d, (E)-1-(2-Amino-5-(4-methoxystyryl)phenyl)ethan-1-one] | 9.3 ± 0.23 µM | 25.9 ± 0.61 µM |  |  | 139 to 140 °C |  |  |  | 9 ± 0.31 µM | 30.7 ± 0.42 µM |  | 
Nc1ccc(/C=C/c2ccccc2)cc1C(=O)/C=C/c1cccc(F)c1 [Compound 3a, (E)-1-(2-Amino-5-((E)-styryl)phenyl)-3-(3-fluorophenyl)prop-2-en-1-one] | 21.6 ± 0.32 µM | 18.9 ± 0.54 µM |  |  | 129 to 130 °C |  |  |  | 10.7 ± 0.21 µM | 17.8 ± 0.32 µM |  | 
Nc1ccc(/C=C/c2ccc(F)cc2)cc1C(=O)/C=C/c1cccc(F)c1 [Compound 3b, (E)-1-(2-Amino-5-((E)-4-fluorostyryl)phenyl)-3-(3-fluorophenyl)prop-2-en-1-one] | 6.6 ± 0.33 µM | 5.3 ± 0.34 µM |  | 6.1 ± 0.24 µM | 175 to 177 °C |  |  |  | 15.6 ± 0.6 µM |  |  | 
Nc1ccc(/C=C/c2ccc(Cl)cc2)cc1C(=O)/C=C/c1cccc(F)c1 [Compound 3c, (E)-1-(2-Amino-5-((E)-4-Chlorostyryl)phenyl)-3-(3-fluorophenyl)prop-2-en-1-one] | 15.3 ± 0.1 µM | 10.6 ± 0.3 µM |  |  | 187 to 188 °C |  |  |  | 2.4 ± 0.1 µM | 12.6 ± 0.31 µM |  | 
COc1ccc(/C=C/c2ccc(N)c(C(=O)/C=C/c3cccc(F)c3)c2)cc1 [Compound 3d, (E)-1-(2-Amino-5-((E)-4-methoxystyryl)phenyl)-3-(3-fluorophenyl)prop-2-en-1-one] | 3.9 ± 0.21 µM | 7.9 ± 0.28 µM |  | 9.4 ± 0.5 µM |  |  |  |  | 7 ± 0.45 µM |  |  | 
Nc1ccc(/C=C/c2ccccc2)cc1C(=O)/C=C/c1ccc(F)cc1 [Compound 3e, (E)-1-(2-Amino-5-((E)-styryl)phenyl)-3-(4-fluorophenyl)prop-2-en-1-one] | 4.2 ± 0.43 µM | 20.5 ± 0.46 µM | 220 ± 0.57 µM | 5.1 ± 0.61 µM | 161 to 162 °C | 204 ± 0.55 µM | 1.48 ± 0.05 µM | mixed mode of inhibition | 1.6 ± 0.52 µM |  | 0.01 ± 0.002 µM/min | 
Nc1ccc(/C=C/c2ccc(F)cc2)cc1C(=O)/C=C/c1ccc(F)cc1 [Compound 3f, (E)-1-(2-Amino-5-((E)-4-fluorostyryl)phenyl)-3-(4-fluorophenyl)prop-2-en-1-one] | 18.5 ± 0.37 µM | 8.8 ± 0.33 µM |  | 6.9 ± 0.37 µM |  |  |  |  | 9.5 ± 0.41 µM |  |  | 
Nc1ccc(/C=C/c2ccc(Cl)cc2)cc1C(=O)/C=C/c1ccc(F)cc1 [Compound 3g, (E)-1-(2-Amino-5-((E)-4-chlorostyryl)phenyl)-3-(4-fluorophenyl)prop-2-en-1-one] | 5.2 ± 0.53 µM | 15.1 ± 0.19 µM |  |  | 197 to 198 °C |  |  |  | 1.7 ± 0.25 µM | 19.2 ± 0.47 µM |  | 
COc1ccc(/C=C/c2ccc(N)c(C(=O)/C=C/c3ccc(F)cc3)c2)cc1 [Compound 3h, (E)-1-(2-Amino-5-((E)-4-methoxystyryl)phenyl)-3-(4-fluorophenyl)prop-2-en-1-one] | 25.8 ± 0.43 µM | 20.2 ± 0.23 µM |  |  | 153 to 154 °C |  |  |  | 7.6 ± 0.2 µM | 10.5 ± 0.18 µM |  | 
COc1cccc2c1C(=O)c1c(O)c3c(c(O)c1C2=O)C[C@@](O)(C(=O)CO)C[C@@H]3O[C@H]1C[C@H](N)[C@H](O)[C@H](C)O1 [Doxorubicin, reference compound] |  |  |  |  |  |  |  |  |  |  |  | 1.14 ± 0.23 µM

Reference: article PMC8125089, “Synthesis, Structure, Carbohydrate Enzyme Inhibition, Antioxidant Activity, In Silico Drug-Receptor Interactions and Drug-Like Profiling of the 5-Styryl-2-Aminochalcone Hybrids” (Molecules, 2021)
